This passage reports IC50 results from ChEMBL document CHEMBL5728971, “Small molecule inhibitors of lactate dehydrogenase and methods of use thereof” (2022).

A short description of the assay: Biochemical Assay: Test compounds were placed in a Greiner Bio-One (Monroe, N.C.) 1536-well black solid bottom assay plate. 200 millimolar (mM) Tris HCl, pH 7.4, 100 micromolar (μM) EDTA and 0.01% TWEEN-20™, final concentration, was used as the assay buffer. The LDHA reagent was 2 nanomolar (nM) Human LDHA (Meridian Life Science, Inc., Memphis, Tenn.), final concentration, in assay buffer.

Each structure is given as a SMILES string.

The molecule `NS(=O)(=O)c1ccc(Cc2c(-c3ccc(F)c(C#CCC4CC4)c3)nn(-c3nc(C(=O)O)cs3)c2CC2CC2)cc1F` showed a half-inhibitory concentration (IC50) of less than 100 nM.

As for `Cc1ccc(-c2cccc(-c3c(Cc4ccc(S(N)(=O)=O)c(F)c4)c(CC4CC4)nn3-c3nc(C(=O)O)cs3)c2)cc1`, the IC50 result is “in the range around 29000 nM”.

Consider `C=C(C)c1cc(-c2nn(-c3nc(C(=O)O)cs3)c(CC3CC3)c2Cc2ccc(S(N)(=O)=O)c(F)c2)ccc1F`, for which the IC50 is less than 100 nM.

`NS(=O)(=O)c1ccc(Cc2c(-c3ccc(F)c(C4CC4)c3)nn(-c3nc(C(=O)O)cs3)c2CC2CC2)cc1Cl` yielded an IC50 of less than 100 nM.

In turn, `COc1cccc(-c2cc(-c3nn(-c4nc(C(=O)O)cs4)c(C(F)(F)F)c3Cc3ccc(S(N)(=O)=O)cc3)ccc2F)c1` displayed an IC50 of less than 100 nM.

`CC(C)(C)/C=C/c1cc(-c2nn(-c3nc(C(=O)O)cs3)c(CC3CC3)c2Cc2ccc(S(N)(=O)=O)c(F)c2)ccc1F` had an IC50 of less than 100 nM.

`CCOC(=O)c1csc(-n2nc(CC3CC3)c(Cc3ccc(S(N)(=O)=O)cc3F)c2-c2ccc(F)c(-c3cccc(OC)c3)c2)n1`: the IC50 is more than 57000 nM.

Regarding `NS(=O)(=O)c1ccc(Cc2c(-c3ccc(F)c(C#CC4(F)COC4)c3)nn(-c3nc(C(=O)O)cs3)c2CC2CC2)cc1F`, the IC50 was less than 100 nM.

The molecule `Cc1ccc(C#Cc2cc(-c3nn(-c4nc(C(=O)O)cs4)c(CC4CC4)c3Cc3ccc(S(N)(=O)=O)c(F)c3)ccc2F)s1` yielded an IC50 of less than 100 nM.

Consider `Cc1ccc(-c2cccc(-c3c(Cc4ccc(S(N)(=O)=O)cc4)c(CC4CC4)nn3-c3nc(C(=O)O)cs3)c2)cc1`, for which the IC50 entry was “in the range around 29000 nM”.

`Cc1csc(-c2cc(-c3c(Cc4ccc(S(N)(=O)=O)c(F)c4)c(CC4CC4)nn3-c3nc(C(=O)O)cs3)ccc2F)c1` had an IC50 of more than 57000 nM.

As to `NS(=O)(=O)c1ccc(Cc2c(-c3cccc(C(O)(C4CC4)C(F)(F)F)c3)nn(-c3nc(C(=O)O)cs3)c2CC2CC2)cc1F` (configuration not stated), the IC50 was less than 100 nM.

As for `NS(=O)(=O)c1cccc(Cc2c(-c3ccc(F)c(C#CC4CCCC4)c3)nn(-c3nc(C(=O)O)cs3)c2CC2CC2)c1`, the IC50 result was “in the range around 550 nM”.

`Cc1csc(-c2cc(-c3c(Cc4ccc(S(N)(=O)=O)cc4F)c(CC4CC4)nn3-c3nc(C(=O)O)cs3)ccc2F)c1`: the IC50 is more than 57000 nM.

`Cc1ccc(-c2cc(-c3nn(-c4nc(C(=O)O)cs4)c(C4CC4)c3Cc3ccc(S(N)(=O)=O)c(F)c3)ccc2F)cc1` displayed an IC50 of less than 100 nM.

On to `NS(=O)(=O)c1ccc(Cc2c(-c3ccc(F)c(C#CC(F)(F)F)c3)nn(-c3nc(C(=O)O)cs3)c2CC2CC2)cc1F`, for which the IC50 entry was “in the range around 550 nM”.

The molecule `CCC(C)(C)c1cc(-c2nn(-c3nc(C(=O)O)cs3)c(CC3CC3)c2Cc2ccc(S(N)(=O)=O)c(F)c2)ccc1F` had a half-inhibitory concentration (IC50) of less than 100 nM.

For the molecule `CCOC(=O)c1csc(-n2nc(-c3ccc(F)c(-c4ccc(F)cc4)c3)c(Cc3ccc(S(N)(=O)=O)cc3F)c2CC2CC2)n1`, the IC50 entry is “in the range around 29000 nM”.

On to `CCOC(=O)c1csc(-n2nc(-c3ccc(F)c(-c4ccc(F)cc4)c3)c(Cc3ccc(S(N)(=O)=O)c(F)c3)c2C2CC2)n1`, for which the IC50 entry was “in the range around 29000 nM”.

With `NS(=O)(=O)c1ccc(Cc2c(-c3ccc(F)c(-c4ccc(F)s4)c3)nn(-c3nc(C(=O)O)cs3)c2CC2CC2)cc1F`, the IC50 is less than 100 nM.

`NS(=O)(=O)c1ccc(Cc2c(-c3ccc(F)c(/C=C/C4CC4)c3)nn(-c3nc(C(=O)O)cs3)c2CC2CC2)cc1F` registered an IC50 of less than 100 nM.

For `Cc1noc(C)c1-c1cc(-c2nn(-c3nc(C(=O)O)cs3)c(CC3CC3)c2Cc2ccc(S(N)(=O)=O)cc2F)ccc1F`, the concentration for half-maximal inhibition (IC50) was less than 100 nM.

`Cc1ccc(-c2cccc(-c3nn(-c4nc(C(=O)O)cs4)c(C4CC4)c3Cc3ccc(S(N)(=O)=O)c(F)c3)c2)cc1` yielded an IC50 of less than 100 nM.

For `Cc1ccc(-c2cc(-c3c(Cc4ccc(S(N)(=O)=O)c(F)c4)c(CC4CC4)nn3-c3nc(C(=O)O)cs3)ccc2F)cc1`, the half-inhibitory concentration (IC50) result is “in the range around 29000 nM”.

In the case of `CCOC(=O)c1csc(-n2nc(CC3CC3)c(Cc3ccc(S(N)(=O)=O)c(F)c3)c2-c2ccc(F)c(-c3cccc(OC)c3)c2)n1`, the IC50 was more than 57000 nM.

`CC(c1ccccc1)c1cc(-c2nn(-c3nc(C(=O)O)cs3)c(CC3CC3)c2Cc2ccc(S(N)(=O)=O)c(F)c2)ccc1F` (configuration not stated) showed an IC50 of less than 100 nM.

Regarding `CCOC(=O)c1csc(-n2nc(-c3ccc(F)c(C#CC4CC4)c3)c(Cc3ccc(S(N)(=O)=O)cc3)c2CC2CC2)n1`, the IC50 entry was “in the range around 29000 nM”.

Turning to `CCOC(=O)c1csc(-n2nc(-c3ccc(F)c(C#CC4CCCC4)c3)c(Cc3ccc(S(N)(=O)=O)c(F)c3)c2C2CC2)n1`, the IC50 result was “in the range around 29000 nM”.

As for `CNS(=O)(=O)c1ccc(Cc2c(-c3cccc(-c4ccccc4)c3)nn(-c3nc(C(=O)O)cs3)c2O)cc1`, the IC50 was more than 57000 nM.

`CCOC(=O)c1csc(-n2nc(-c3ccc(F)c(-c4cccc(F)c4)c3)c(Cc3ccc(S(N)(=O)=O)c(F)c3)c2CC2CC2)n1` gave an IC50 of more than 57000 nM.

Regarding `CC(C)(C)Cc1cc(-c2nn(-c3nc(C(=O)O)cs3)c(CC3CC3)c2Cc2ccc(S(N)(=O)=O)c(F)c2)ccc1F`, the IC50 was less than 100 nM.

Regarding `NS(=O)(=O)c1ccc(Cc2c(-c3cccc(OCc4ccccc4)c3)nn(-c3nc(C(=O)O)cs3)c2CC2CC2)cc1F`, the 50% inhibitory concentration (IC50) was less than 100 nM.

`NS(=O)(=O)c1ccc(Cc2c(-c3ccccc3)nn(-c3nc(C(=O)O)cs3)c2-c2ccccc2)cc1`: the IC50 is less than 100 nM.

For the molecule `NS(=O)(=O)c1ccc(Cc2c(-c3ccc(F)c(C4CCOCC4)c3)nn(-c3nc(C(=O)O)cs3)c2CC2CC2)cc1F`, the IC50 is less than 100 nM.

As to `NS(=O)(=O)c1ccc(Cc2c(CC3CC3)nn(-c3nc(C(=O)O)cs3)c2-c2cccc(-c3ccccc3)c2)cc1F`, the IC50 result is “in the range around 29000 nM”.

As for `NS(=O)(=O)c1ccc(Cc2c(-c3cccc(-c4ccccc4)c3)nn(-c3nc(C(=O)O)cs3)c2C2(C(F)(F)F)CC2)cc1F`, the IC50 result is “in the range around 29000 nM”.

For `NS(=O)(=O)c1ccc(Cc2c(-c3ccc(F)c(C4=CCCC4)c3)nn(-c3nc(C(=O)O)cs3)c2CC2CC2)cc1F`, the IC50 is less than 100 nM.

In the case of `NS(=O)(=O)c1ccc(Cc2c(-c3cccc(-c4ccccc4)c3)nn(-c3nc(C(=O)O)cs3)c2CC(F)(F)F)cc1`, the IC50 entry was “in the range around 550 nM”.

On to `CCOC(=O)c1csc(-n2nc(-c3ccc(F)c(-c4cccc(OC)c4)c3)c(Cc3ccc(S(N)(=O)=O)c(F)c3)c2CC2CC2)n1`, for which the IC50 result was “in the range around 29000 nM”.

Turning to `CCOC(=O)c1csc(-n2nc(-c3cccc(OC4CCCC4)c3)c(Cc3ccc(S(N)(=O)=O)cc3F)c2CC2CC2)n1`, the IC50 result was “in the range around 29000 nM”.

On to `CCOC(=O)c1csc(-n2nc(-c3ccc(F)c(C#CC4CCCC4)c3)c(Cc3cccc(S(N)(=O)=O)c3)c2CC2CC2)n1`, for which the IC50 was more than 57000 nM.

As for `CC#Cc1cccc(-c2nn(-c3nc(C(=O)OCC)cs3)c(CC3CC3)c2Cc2ccc(S(N)(=O)=O)c(F)c2)c1`, the IC50 entry was “in the range around 29000 nM”.

For `O=C(O)c1csc(-n2nc(-c3ccc(Cl)cc3)cc2C(F)(F)F)n1`, the half-inhibitory concentration (IC50) entry was “in the range around 29000 nM”.

`Cc1ccc(-c2cc(-c3nn(-c4nc(C(=O)O)cs4)c(C(F)(F)F)c3Cc3ccc(S(N)(=O)=O)cc3)ccc2F)cc1` yielded an IC50 of less than 100 nM.

`CCOC(=O)c1csc(-n2nc(-c3ccccc3)c(Cc3ccc(S(N)(=O)=O)cc3)c2C2CC2)n1` displayed a half-inhibitory concentration (IC50) of more than 57000 nM.

`C=C(C)C#Cc1cc(-c2nn(-c3nc(C(=O)O)cs3)c(CC3CC3)c2Cc2ccc(S(N)(=O)=O)c(F)c2)ccc1F` yielded an IC50 of less than 100 nM.

On to `COc1cccc(-c2cc(-c3nn(-c4nc(C(=O)O)cs4)c(C4CC4)c3Cc3ccc(S(N)(=O)=O)c(F)c3)ccc2F)c1`, for which the IC50 was less than 100 nM.

For the molecule `CC(C)c1ccc(-c2cc(-c3nn(-c4nc(C(=O)O)cs4)c(CC4CC4)c3Cc3ccc(S(N)(=O)=O)cc3)ccc2F)cc1`, the IC50 was less than 100 nM.

For the molecule `NS(=O)(=O)c1ccc(Cc2c(-c3cccc(N4CCC(F)(F)CC4)c3)nn(-c3nc(C(=O)O)cs3)c2CC2CC2)cc1F`, the IC50 is less than 100 nM.

`CC(F)C#Cc1cc(-c2nn(-c3nc(C(=O)O)cs3)c(CC3CC3)c2Cc2ccc(S(N)(=O)=O)c(F)c2)ccc1F` (configuration not stated) showed an IC50 of less than 100 nM.

On to `Cc1ncc(-c2cc(-c3nn(-c4nc(C(=O)O)cs4)c(CC4CC4)c3Cc3ccc(S(N)(=O)=O)c(F)c3)ccc2F)s1`, for which the half-inhibitory concentration (IC50) is less than 100 nM.

Consider `NS(=O)(=O)c1ccc(Cc2c(-c3ccc(F)c(-c4ccc(F)cc4)c3)nn(-c3nc(C(=O)O)cs3)c2CC2CC2)c(F)c1`, for which the half-maximal inhibitory concentration (IC50) was less than 100 nM.

Turning to `NS(=O)(=O)c1ccc(Cc2c(-c3cccc(-c4ccccc4)c3)nn(-c3nc(C(=O)O)cs3)c2C2(C(F)(F)F)CC2)c(F)c1`, the IC50 result is “in the range around 550 nM”.

Regarding `NS(=O)(=O)c1ccc(Cc2c(-c3cccc(OC4CCCC4)c3)nn(-c3nc(C(=O)O)cs3)c2CC2CC2)cc1F`, the IC50 is less than 100 nM.

In the case of `COc1cccc(-c2cc(-c3c(Cc4ccc(S(N)(=O)=O)c(F)c4)c(CC4CC4)nn3-c3nc(C(=O)O)cs3)ccc2F)c1`, the IC50 result was “in the range around 29000 nM”.

Molecule `NS(=O)(=O)c1ccc(Cc2c(-c3ccc(F)c(C4CCCC4)c3)nn(-c3nc(C(=O)O)cs3)c2CC2CC2)cc1F` came in with an IC50 of less than 100 nM.

Molecule `Cn1cc(-c2cc(-c3nn(-c4nc(C(=O)O)cs4)c(CC4CC4)c3Cc3ccc(S(N)(=O)=O)cc3F)ccc2F)cn1` displayed an IC50 of less than 100 nM.

`C/C=C(\C)c1cc(-c2nn(-c3nc(C(=O)O)cs3)c(CC3CC3)c2Cc2ccc(S(N)(=O)=O)c(F)c2)ccc1F`: the IC50 was less than 100 nM.

Take `NS(=O)(=O)c1ccc(Cc2c(-c3cccc(-c4ccccc4)c3)nn(-c3nc(C(=O)O)cs3)c2C2(C(F)(F)F)CC2)cc1`: the IC50 result is “in the range around 29000 nM”.

Turning to `Cc1ccc(-c2cc(-c3c(Cc4ccc(S(N)(=O)=O)cc4F)c(CC4CC4)nn3-c3nc(C(=O)O)cs3)ccc2F)s1`, the half-maximal inhibitory concentration (IC50) was more than 57000 nM.

The molecule `NS(=O)(=O)c1ccc(Cc2c(-c3ccc(F)c(C4CC4)c3)nn(-c3nc(C(=O)O)cs3)c2CC2CC2)cc1F` gave an IC50 of less than 100 nM.

`NS(=O)(=O)c1ccc(Cc2c(-c3cccc(-c4ccc(F)cc4)c3)nn(-c3nc(C(=O)O)cs3)c2C(F)(F)F)cc1` displayed an IC50 of less than 100 nM.

Broadly, the IC50 is the concentration at which inhibition is half-maximal. Read a low IC50 as greater potency in that assay.
